# Experiment: xn = mol fraction of the nth substance listed
# Conditions: 101 kPa
structure (smiles),measurement,setting,value
CCCC[n+]1ccn(C)c1.N#C[S-] + CC#N,speed of sound,"293.15 K, x2 = 0",1778.8 m/s
same,speed of sound,"293.15 K, x2 = 0.0984",1764.8 m/s
same,speed of sound,"293.15 K, x2 = 0.1936",1749.3 m/s
same,speed of sound,"293.15 K, x2 = 0.4068",1701.6 m/s
same,speed of sound,"293.15 K, x2 = 0.5994",1633.3 m/s
same,speed of sound,"293.15 K, x2 = 0.6925",1586.2 m/s
same,speed of sound,"293.15 K, x2 = 0.8971",1426.5 m/s
same,speed of sound,"293.15 K, x2 = 0.9465",1372.3 m/s
same,speed of sound,"298.15 K, x2 = 0",1767.2 m/s
same,speed of sound,"298.15 K, x2 = 0.0984",1752.9 m/s
same,speed of sound,"298.15 K, x2 = 0.3061",1714.1 m/s
same,speed of sound,"298.15 K, x2 = 0.4068",1688.5 m/s
same,speed of sound,"298.15 K, x2 = 0.4899",1662.5 m/s
same,speed of sound,"298.15 K, x2 = 0.5994",1618.7 m/s
same,speed of sound,"298.15 K, x2 = 0.6925",1571.2 m/s
same,speed of sound,"298.15 K, x2 = 0.7988",1498.6 m/s
same,speed of sound,"298.15 K, x2 = 0.8971",1408.9 m/s
same,speed of sound,"298.15 K, x2 = 0.9465",1353.6 m/s
same,speed of sound,"303.15 K, x2 = 0",1755.4 m/s
same,speed of sound,"303.15 K, x2 = 0.0984",1740.8 m/s
same,speed of sound,"303.15 K, x2 = 0.1936",1724.7 m/s
same,speed of sound,"303.15 K, x2 = 0.3061",1701.4 m/s
same,speed of sound,"303.15 K, x2 = 0.4068",1675.3 m/s
same,speed of sound,"303.15 K, x2 = 0.4899",1648.8 m/s
same,speed of sound,"303.15 K, x2 = 0.5994",1604.2 m/s
same,speed of sound,"303.15 K, x2 = 0.8971",1391 m/s
same,speed of sound,"303.15 K, x2 = 0.9465",1334.8 m/s
same,speed of sound,"308.15 K, x2 = 0",1743.7 m/s
same,speed of sound,"308.15 K, x2 = 0.0984",1728.9 m/s
same,speed of sound,"308.15 K, x2 = 0.1936",1712.5 m/s
same,speed of sound,"308.15 K, x2 = 0.3061",1688.7 m/s
same,speed of sound,"308.15 K, x2 = 0.4068",1662.1 m/s
same,speed of sound,"308.15 K, x2 = 0.4899",1635.2 m/s
same,speed of sound,"308.15 K, x2 = 0.5994",1589.7 m/s
same,speed of sound,"308.15 K, x2 = 0.6925",1540.8 m/s
same,speed of sound,"308.15 K, x2 = 0.7988",1465.7 m/s
same,speed of sound,"308.15 K, x2 = 0.8971",1373.1 m/s
same,speed of sound,"308.15 K, x2 = 0.9465",1316 m/s
same,speed of sound,"313.15 K, x2 = 0",1732.1 m/s
same,speed of sound,"313.15 K, x2 = 0.0984",1717 m/s
same,speed of sound,"313.15 K, x2 = 0.1936",1700.3 m/s
same,speed of sound,"313.15 K, x2 = 0.3061",1676.1 m/s
same,speed of sound,"313.15 K, x2 = 0.4068",1649 m/s
same,speed of sound,"313.15 K, x2 = 0.4899",1621.7 m/s
same,speed of sound,"313.15 K, x2 = 0.5994",1575.4 m/s
same,speed of sound,"313.15 K, x2 = 0.6925",1525.7 m/s
same,speed of sound,"313.15 K, x2 = 0.7988",1449.4 m/s
same,speed of sound,"313.15 K, x2 = 0.8971",1355.2 m/s
same,speed of sound,"313.15 K, x2 = 0.9465",1297.2 m/s
CCOS(=O)(=O)[O-].CC[n+]1ccn(C)c1 + CC#N,speed of sound,"293.15 K, x2 = 0",1693.1 m/s
same,speed of sound,"293.15 K, x2 = 0.1936",1667 m/s
same,speed of sound,"293.15 K, x2 = 0.2906",1649.5 m/s
same,speed of sound,"293.15 K, x2 = 0.397",1626.4 m/s
same,speed of sound,"293.15 K, x2 = 0.4967",1592.4 m/s
same,speed of sound,"293.15 K, x2 = 0.7953",1464.6 m/s
same,speed of sound,"293.15 K, x2 = 0.9516",1343.4 m/s
same,speed of sound,"298.15 K, x2 = 0",1680.8 m/s
same,speed of sound,"298.15 K, x2 = 0.0934",1670.3 m/s
same,speed of sound,"298.15 K, x2 = 0.1936",1654.5 m/s
same,speed of sound,"298.15 K, x2 = 0.2906",1639.7 m/s
same,speed of sound,"298.15 K, x2 = 0.397",1613.3 m/s
same,speed of sound,"298.15 K, x2 = 0.4967",1578.7 m/s
same,speed of sound,"298.15 K, x2 = 0.5938",1552.3 m/s
same,speed of sound,"298.15 K, x2 = 0.7953",1448.5 m/s
same,speed of sound,"298.15 K, x2 = 0.8951",1373.4 m/s
same,speed of sound,"298.15 K, x2 = 0.9516",1324.8 m/s
same,speed of sound,"303.15 K, x2 = 0",1668.5 m/s
same,speed of sound,"303.15 K, x2 = 0.1936",1641.9 m/s
same,speed of sound,"303.15 K, x2 = 0.2906",1623.8 m/s
same,speed of sound,"303.15 K, x2 = 0.397",1599.9 m/s
same,speed of sound,"303.15 K, x2 = 0.4967",1564.7 m/s
same,speed of sound,"303.15 K, x2 = 0.7953",1432.3 m/s
same,speed of sound,"308.15 K, x2 = 0.1936",1629.3 m/s
same,speed of sound,"308.15 K, x2 = 0.2906",1610.9 m/s
same,speed of sound,"308.15 K, x2 = 0.397",1586.6 m/s
same,speed of sound,"308.15 K, x2 = 0.4967",1550.8 m/s
same,speed of sound,"308.15 K, x2 = 0.5938",1523.5 m/s
same,speed of sound,"308.15 K, x2 = 0.7001",1474.1 m/s
same,speed of sound,"308.15 K, x2 = 0.7953",1416 m/s
same,speed of sound,"308.15 K, x2 = 0.8951",1337.9 m/s
same,speed of sound,"308.15 K, x2 = 0.9516",1287.1 m/s
same,speed of sound,"313.15 K, x2 = 0",1644.4 m/s
same,speed of sound,"313.15 K, x2 = 0.0934",1633.5 m/s
same,speed of sound,"313.15 K, x2 = 0.1936",1616.8 m/s
same,speed of sound,"313.15 K, x2 = 0.2906",1598.1 m/s
same,speed of sound,"313.15 K, x2 = 0.397",1573.5 m/s
same,speed of sound,"313.15 K, x2 = 0.4967",1537 m/s
same,speed of sound,"313.15 K, x2 = 0.7001",1458.9 m/s
same,speed of sound,"313.15 K, x2 = 0.7953",1399.8 m/s
same,speed of sound,"313.15 K, x2 = 0.8951",1320.2 m/s
same,speed of sound,"313.15 K, x2 = 0.9516",1268.3 m/s
CC#N + CCCC[n+]1ccn(C)c1.N#C[S-],speed of sound,"303.15 K, x1 = 1",1258.8 m/s
same,speed of sound,"313.15 K, x1 = 1",1218.5 m/s
CC#N + CCOS(=O)(=O)[O-].CC[n+]1ccn(C)c1,speed of sound,"293.15 K, x1 = 1",1298.8 m/s
same,speed of sound,"298.15 K, x1 = 1",1279 m/s
same,speed of sound,"303.15 K, x1 = 1",1258.8 m/s
same,speed of sound,"308.15 K, x1 = 1",1238.6 m/s
same,speed of sound,"313.15 K, x1 = 1",1218.5 m/s

# From a compilation of properties of binary mixtures (doi:10.1016/j.molliq.2014.10.017)
